{"source": "patent US10363229B2", "about": "“Methods and compositions for the treatment of cancer” (priority 2009, dated 2019)", "type_in_all_cases": "cell-based, mouse", "key": {"[1]": {"test_system": "melanoma cells", "experiment": "Senescence assay (β-galactosidase staining) and arborization", "protocol": "Senescence was assessed with the Senescence Cells Histochemical Staining Kit (Sigma).\nDuring the first 2-3 weeks of incubating melanoma cells in 2% methyl sulfone, replacement of the 2% methyl sulfone medium with medium without drug reversed the phenotypes described above. Re-adding 2% methyl sulfone to the cells re-induced the non-malignant phenotypes. This cycle of reversal occurred until the cells were incubated with 2% methyl sulfone for more than three weeks. […] As a further test, we detached senescent cells from the culture dish by trypsinization and replated the cells in medium without methyl sulfone.\nMature melanocytes assume a morphology that is similar to neuronal cells by having a small area of cytoplasm surrounding the nucleus and long extensions called arbors. The primary function of melanocytes is to produce melanin and package the melanin in vesicles called melanosomes. Melanosomes are then transported to the tips of melanocytes arbors. These tips are phagocytized by keratinocytes, cells that sit near the skin's surface, and the newly acquired melanosomes form an umbrella-like shield around the nuclei of keratinocytes to protect these cells' DNA from UV-inducing mutations."}, "[2]": {"test_system": "p27 in melanoma cells", "experiment": "Immunofluorescence of p27", "conditions": "cells treated with methyl sulfone", "protocol": "Cells were grown on 12 mm coverslips until 60 to 70% confluent. 2% methyl sulfone was added to half the coverslips and normal medium to other half. After 24, 48, and 96 hours, coverslips were placed in porcelain holders and incubated in 37° C. PBS for 30 seconds followed by incubation in 37° C. 4% paraformaldehyde for 10 minutes. Cells were washed in PBS for 5 minutes followed by incubation in 0.2% Triton X-100/PBS for 5 minutes at room temperature. Chicken serum ([…] in 1 ml PBS) was added to cells for 30 minutes. Cells were washed 3 times in 0.2% Triton X-100/PBS, 3 minutes each. Rabbit anti-p27 polyclonal antibody, (Santa Cruz Biotech, Calif.) was diluted 1/250 in 1% BSA/PBS and added to coverslips for 1.5 hours. Cells were washed 5 times in 0.2% Triton X-100/PBS, 3 minutes each. Secondary antibody, Alexa Fluor 488 chicken anti-rabbit antibody, was diluted 1/1000 in 1% BSA/PBS and added to coverslips for 30 minutes in the dark. Cells were washed five times in 0.2% Triton X-100/PBS, three minutes each. Cells were washed twice in PBS for two minutes each and placed in DAPI, diluted 1/1000 in PBS, for 5 minutes. Cells were washed in PBS for one minute. SlowFade was added to slides, coverslips were placed face down and sealed with nail polish. […]"}, "[3]": {"test_system": "E-cadherin, β-catenin, N-cadherin and vimentin in melanoma cells", "experiment": "Immunofluorescence of E-cadherin, β-catenin, N-cadherin and vimentin (ETM transition)", "conditions": "2% methyl sulfone, 1 week", "protocol": "Cells were plated onto 12 mm coverslips. When cells grew to 60 to 70% confluence, 2% methyl sulfone was added to half the coverslips and normal medium to other half. […] PBS for 30 seconds and fixed in 37° C. 4% paraformaldehyde for 10 minutes. Cells were washed in PBS for 5 minutes and incubated in 1% Triton X-100/PBS for 5 minutes. To block nonspecific sites, chicken serum was diluted 1/20 in PBS and added to cells for 30 minutes. Cells were washed 3 times in 0.1% Triton X-100/PBS, 3 minutes each.\nRabbit anti-E-cadherin antibody (Santa Cruz Biotech, Calif.) was diluted 1/100 in 5% BSA/PBS and added to the cells on coverslips for 2 hours. Cells were washed 5 times in 0.1% Triton X-100/PBS, 3 minutes each. Secondary antibody, Alexa Fluor 488 chicken anti-rabbit was diluted 1/200 in 5% BSA/PBS and added to coverslips for one hour in the dark. Cells were washed five times in 0.1% Triton X-100/PBS, three minutes each. Cells were washed in PBS for one minute and placed in Hoechst (1 mg/ml), diluted 1/1000, for 5 minutes. Cells were washed in PBS for one minute. SlowFade was added to slides, coverslips were placed face down and sealed with nail polish. […]"}}}
{"substance": "methyl sulfone", "values": [{"measurement": "morphology of senescent melanoma cells (arborization)", "setting": "[1]; 2% methyl sulfone", "value": "took on the morphology of mature melanocytes"}, {"measurement": "survival of arborized cells in culture", "setting": "[1]; 2% methyl sulfone", "value": "at least two months"}, {"measurement": "melanoma cells senescent (β-galactosidase activity)", "setting": "[1]; 2% methyl sulfone for more than three weeks", "value": "greater than 95%"}, {"measurement": "senescence after replacing drug medium with control medium", "setting": "[1]; senescent cells, 2% methyl sulfone removed", "value": "remained senescent"}, {"measurement": "localization of p27", "setting": "[2]", "value": "localized in the nuclei"}, {"measurement": "distribution of E-cadherin, β-catenin, N-cadherin and vimentin vs untreated", "setting": "[3]", "value": "no significant differences"}]}
